# Data: the supplement of paper PMC10307832
# Assays:
# Test in all cases: relative viability (nuclei count vs DMSO), 5 days (fraction); higher = more cells survive
# GSK-J4 + Pemetrexed = compound: CCOC(=O)CCNc1cc(N2CCc3ccccc3CC2)nc(-c2ccccn2)n1 [GSK-J4] + Nc1nc2[nH]cc(CCc3ccc(C(=O)N[C@@H](CCC(=O)O)C(=O)O)cc3)c2c(=O)[nH]1 [Pemetrexed] (partner 0.2 µM)
# Summary of the method: (§1)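 Lung cancer cell lines in 1536-well plates were dosed by pin tool the day after seeding, either with one drug alone or with a fixed anchor-drug dose plus five library-drug doses (not always all listed) in √10 steps. After 5 days, cells were fixed and their nuclei stained in one step (final 0.05% Triton X-100, 1% formaldehyde, 1 ug/ml Hoechst), then counted on 4× images. Relative viability is the nuclei count in treated wells divided by that in vehicle wells. Values are medians of duplicate plates.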
# GSK-J4 + Bortezomib = compound: CCOC(=O)CCNc1cc(N2CCc3ccccc3CC2)nc(-c2ccccn2)n1 [GSK-J4] + CC(C)C[C@H](NC(=O)[C@H](Cc1ccccc1)NC(=O)c1cnccn1)B(O)O [Bortezomib] (partner 0.002 µM)
# Summary of the method: as §1
# GSK-J4 + Navitoclax = compound: CCOC(=O)CCNc1cc(N2CCc3ccccc3CC2)nc(-c2ccccn2)n1 [GSK-J4] + CC1(C)CCC(c2ccc(Cl)cc2)=C(CN2CCN(c3ccc(C(=O)NS(=O)(=O)c4ccc(N[C@H](CCN5CCOCC5)CSc5ccccc5)c(S(=O)(=O)C(F)(F)F)c4)cc3)CC2)C1 [Navitoclax] (partner 0.5 µM)
# Summary of the method: as §1
# AZ3146 + Phenformin = compound: CN1CCC(CC1)OC2=CC(=C(C=C2)NC3=NC=C4C(=N3)N(C(=O)N4C)C5CCCC5)OC [AZ3146] + N=C(N)NC(=N)NCCc1ccccc1 [Phenformin] (partner 250 µM)
# Summary of the method: as §1
Cell Line,relative viability (GSK-J4 + Pemetrexed; first compound 0.5 µM),relative viability (GSK-J4 + Pemetrexed; first compound 1.581 µM),relative viability (GSK-J4 + Pemetrexed; first compound 5 µM),relative viability (GSK-J4 + Pemetrexed; first compound 15.81 µM),relative viability (GSK-J4 + Pemetrexed; first compound 50 µM),relative viability (GSK-J4 + Bortezomib; first compound 0.5 µM),relative viability (GSK-J4 + Bortezomib; first compound 1.581 µM),relative viability (GSK-J4 + Bortezomib; first compound 5 µM),relative viability (GSK-J4 + Bortezomib; first compound 15.81 µM),relative viability (GSK-J4 + Bortezomib; first compound 50 µM),relative viability (GSK-J4 + Navitoclax; first compound 0.5 µM),relative viability (GSK-J4 + Navitoclax; first compound 1.581 µM),relative viability (GSK-J4 + Navitoclax; first compound 5 µM),relative viability (GSK-J4 + Navitoclax; first compound 15.81 µM),relative viability (GSK-J4 + Navitoclax; first compound 50 µM),relative viability (AZ3146 + Phenformin; first compound 0.08 µM),relative viability (AZ3146 + Phenformin; first compound 0.253 µM),relative viability (AZ3146 + Phenformin; first compound 0.8 µM),relative viability (AZ3146 + Phenformin; first compound 2.53 µM),relative viability (AZ3146 + Phenformin; first compound 8 µM)
201T,0.353,0.301,0.312,0.33,0.364,1.03,1.08,1.05,1.14,1.09,1.19,1.28,1.25,1.21,1.16,0.448,0.446,0.438,0.424,0.455
A549,–,–,–,–,–,–,–,–,–,–,1.08,1.15,1.24,1.24,1.2,–,0.153,0.168,0.131,0.0734
A-427,0.932,0.654,–,0.883,0.463,0.937,–,0.839,0.781,0.789,0.951,–,0.925,0.906,0.782,0.375,0.332,0.243,0.282,0.227
ABC-1,–,–,–,–,–,0.329,0.246,0.258,0.328,0.327,–,–,–,–,–,0.266,0.19,0.212,0.226,0.26
BEN,0.933,0.759,0.501,0.731,0.573,0.898,0.719,–,0.857,0.735,0.0769,0.0597,–,0.0496,0.042,–,0.291,0.248,0.268,0.242
CAL-12T,1.2,1.15,1.4,1.27,0.946,1.06,0.834,0.785,1.01,0.941,1.2,1.17,1.47,1.16,1.21,0.674,0.575,0.568,0.6,0.405
COR-L23,0.185,0.192,–,0.212,0.207,0.944,0.815,–,1.01,0.729,0.886,1.02,–,0.929,0.956,0.401,0.44,0.416,0.526,0.336
COR-L 105,0.826,–,1.12,1.09,0.937,0.851,0.521,0.605,0.734,0.856,0.692,0.551,0.647,0.88,0.679,0.548,0.451,0.505,0.388,0.294
Calu-6,–,–,–,–,–,0.884,0.912,1.08,1.13,0.898,0.86,0.74,0.779,0.874,0.716,–,–,–,–,–
ChaGo-K-1,0.259,–,0.247,0.259,0.266,1.21,–,0.913,0.972,0.931,1.09,–,1.02,1.03,0.895,0.581,0.452,0.474,0.426,0.333
EBC-1,–,–,–,–,–,0.436,0.526,0.441,0.61,0.346,0.367,0.4,0.356,0.4,0.264,–,–,–,–,–
EKVX,0.351,–,0.426,0.418,0.315,0.981,0.961,1.28,1.01,0.963,0.871,0.874,1.12,0.834,0.951,0.248,0.196,0.234,0.25,0.231
EMC-BAC-2,0.414,0.362,–,0.441,0.477,1.08,0.944,0.811,0.965,1.08,1.17,1.07,1.24,1.04,1.13,0.413,0.465,0.53,0.533,0.478
EPLC-272H,0.36,0.294,0.319,0.295,0.3,0.864,–,1.01,0.851,0.936,1.14,–,1.21,0.979,1.02,–,0.247,0.288,0.345,0.317
H3255,0.649,0.551,0.491,0.503,0.502,0.858,0.632,0.655,0.579,0.603,0.474,0.494,0.543,0.368,0.444,0.352,0.419,0.313,0.377,0.338
HARA,0.219,0.214,–,0.263,0.243,1.1,1,–,1.09,1.08,1.16,0.827,–,1.15,0.916,0.384,0.415,0.436,0.41,0.404
HCC-15,0.225,0.225,0.217,0.209,0.245,1.01,0.527,0.943,1.01,0.906,0.692,0.701,0.779,0.566,0.444,0.51,0.463,0.429,0.427,0.391
HCC-44,0.601,0.503,0.638,0.668,0.625,0.842,0.86,0.916,0.892,0.934,0.973,0.91,1.08,0.817,0.898,0.118,0.124,0.0902,0.364,0.273
HCC-78,0.916,0.841,0.929,0.957,0.929,0.442,0.509,0.565,0.422,0.491,0.779,0.681,1.01,–,0.689,0.421,0.557,0.566,0.81,0.551
